Patent publication US10253185B2, “Fluorogenic pH-sensitive dyes and their methods of use (II)” (LIFE TECHNOLOGIES CORPORATION, priority 2012, dated 2019)

What was measured:
[1] = tested on: J774.2 murine macrophages; test: No-wash phagocytosis assay with E. coli bioparticles conjugated to pH-sensitive dye; format: cell-based; conditions: E. coli bioparticle-dye conjugates, J774.2 macrophages
Description: Certain embodiments provide a no-wash, no-quench assay for phagocytosis that is based on fluorogenic bioparticles comprising the pH-sensitive fluorescent dye compounds provided herein. Current protocols for measuring phagocytosis that use fluorescent bioparticles, require a trypan blue quenching step and several washing steps. These steps can introduce significant variability in the assay. To address this issue, provided herein is a no-wash phagocytosis kit, using E. coli bioparticles conjugated to a pH-sensitive fluorescent dye as described herein. These bioparticle conjugates are weakly fluorescent at extracellular pH. […] The pH-sensitive fluorescent bioparticles described herein may be used in plate based, as well as imaging and flow cytometry assays of phagocytosis.

cells = test: Intracellular pH response of dye-loaded cells under perfusion with pH standards (nigericin/valinomycin); format: cell-based; conditions: 5 μM loading; potassium LCIS pH standards 7.4, 7.2, 6.5, 6.0; nigericin and valinomycin 10 μM each
Procedure: 10 mL loading buffer, Compound (4): 10 μL Compound (4) from a 5 mM DMSO stock was added to 100 μL Powerload and mixed. 10 mL LCIS was added to this solution for final concentration of Compound (4) of 5 μM.
Cells were cultured on 35 mm MatTek glass bottom dishes. For loading, cells were rinsed 1× with LCIS and replaced with loading buffer described above. Cells were incubated at 37° C. for 60 minutes, then rinsed 2× with LCIS and imaged with standard TRITC or FITC filter sets. (see FIG. 5).
Cells were cultured and loaded as described above with Compound (4). This solution was removed from the cells and replaced with potassium LCIS pH 7.4 standard and imaging experiments begun with cells under constant perfusion by potassium LCIS pH standards of pH 7.4, 7.2, 6.5, and 6.0. […] (Nigericin and valinomycin added at 10 μM each from DMSO stock.) Images of Compound (4) AM loaded cells at pH 7.4 and 6.0 are shown in FIG. 6. Functional kinetic responses from individually selected cells in the sample are shown in FIG. 7 as the pH was changed from 7.4 to 6.0 and back.

Row | Molecule | uptake of the bioparticles (phagocytosis) [1] | signal from the dye inside of the cells as external pH changed (cells)
1 | cytochalaisin D | potently inhibited | –
2 | CCN(CCCC(=O)NCCCCC(C(=O)OCOC(C)=O)N(CC(=O)OCOC(C)=O)CC(=O)OCOC(C)=O)c1cc(OC)c(-c2c3ccc(=[N+](C)C)cc-3oc3cc(N(C)C)ccc23)cc1N(C)C (centres unmarked) [Compound (4), N-(9-(4-((8-(2-(acetoxymethoxy)-2-oxoethyl)-9-((acetoxymethoxy)carbonyl)-2,6,15-trioxo-3,5-dioxa-8,14-diazaoctadecan-18-yl)(ethyl)amino)-5-(dimethylamino)-2-methoxyphenyl)-6-(dimethylamino)-3H-xanthen-3-ylidene)-N-methylmethanaminium] | – | the signal from the dye inside of the cells changed
